Reference: ChEMBL document CHEMBL1201862, “PubChem BioAssay data set” (2004)
Activity calls are given as the source filed them.

Columns and labels:
[1] = system: Streptococcus; assay: Luminescence Microorganism-Based Dose Response Follow up to Identify Compounds Cytotoxic to Streptococcus. [Related pubchem assays: 1677 (Project Summary), 1915, 1914, 1902 (Retest at Dose), 1900 (Counter Screen), 1662 (Primary HTS)]; assay type: functional, organism-based
[2] = biological target: T1, Streptokinase A (Streptococcus pyogenes serotype M1, UniProt P10520); assay: S. pyogenes streptokinase expression inhibitors, potency, dose response, plasminogen activation absorbance, OD405 (AID 1914); assay type: functional, Streptococcus pyogenes M1 GAS;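 further: secreted streptokinase activity via plasminogen activation per viability signal from cell pellet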
T1 sequence (P10520 whole entry): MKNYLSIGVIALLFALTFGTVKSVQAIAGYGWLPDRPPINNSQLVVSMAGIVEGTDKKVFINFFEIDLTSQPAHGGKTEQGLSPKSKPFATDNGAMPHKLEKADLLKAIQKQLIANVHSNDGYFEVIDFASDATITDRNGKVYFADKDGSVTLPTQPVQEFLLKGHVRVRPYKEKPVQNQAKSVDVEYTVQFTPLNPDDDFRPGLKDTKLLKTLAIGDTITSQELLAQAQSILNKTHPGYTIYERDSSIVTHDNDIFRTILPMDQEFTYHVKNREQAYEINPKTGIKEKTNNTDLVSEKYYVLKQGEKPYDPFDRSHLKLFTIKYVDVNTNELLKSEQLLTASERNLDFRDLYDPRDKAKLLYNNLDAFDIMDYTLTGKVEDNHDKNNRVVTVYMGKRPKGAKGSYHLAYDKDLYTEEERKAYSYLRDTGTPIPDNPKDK

[3] = system: Streptococcus sp. 'group A'; assay: growth inhibition of control SK(-) GAS strain, dose response, counter-screen for streptokinase expression inhibitor project, luminescence, kanamycin, BacTiterGlo, confirmation (AID 1900); assay type: functional, organism-based
[4] = system: Streptococcus; assay: Group A Streptococcus viability loss, dose response, counter-screen for streptokinase expression inhibitor project, luminescence, BacTiterGlo (AID 1915); assay type: functional, organism-based;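 further: potency for reduction of bacterial viability or growth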
[5] = inhibitors of SNCA 5'UTR-driven translation, confirmation, luminescence, H4 neuroglioblastoma cells, dose confirmation (AID 2454); assay type: functional, cell-based;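 further: H4 neuroglioblastoma cells carrying an alpha-synuclein 5'UTR luciferase reporter; potency for inhibition of the luciferase signal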
[6] = luciferase reporter signal reduction – luminescence, H4-C neuroglioblastoma cells, dose response (AID 2458); assay type: functional, cell-based;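 further: H4 neuroglioblastoma cells stably carrying a luciferase reporter gene fusion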
[7] = inhibitors of SNCA 5'UTR-driven reporter translation, confirmation, H4 neuroglioma cells, luminescence (AID 1988); assay type: functional, cell-based
[8] = inhibitors of firefly luciferase expression or activity, dose response, H4 neuroglioma cells, luminescence (AID 1990); assay type: functional, cell-based
[9] = cells; assay type: functional, cell-based
[10] = Shn3 3'UTR reporter inhibitors, dose response, cell-based, Clone20 osteoblasts, firefly luciferase, cherry-picked (AID 624132); assay type: functional;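 further: firefly luciferase luminescence from reporter carrying the Shn3 3'UTR in osteoblasts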
[11] = biological target: Oxytocin receptor (Homo sapiens, UniProt P30559); assay: Fluorescence-based cell-based high throughput dose response assay for agonists of the Oxytocin Receptor (OXTR). [Related pubchem assays: 2435 (Primary screen (OXTR agonists in singlicate)), 434991 (Counterscreen (V1R agonists in triplicate)), 2482 (Summary (OXTR agonists)), 434963 (Confirmation screen (OXTR agonists in triplicate))]; assay type: functional
[12] = biological target: Vasopressin V1a receptor (Homo sapiens, UniProt P37288); assay: Counterscreen for Oxytocin Receptor (OXTR) agonists: Fluorescence-based cell-based high throughput dose response assay to identify agonists of the vasopressin 1 receptor (V1R). [Related pubchem assays: 2435 (Primary screen (OXTR agonists in singlicate)), 434991 (Counterscreen (V1R agonists in triplicate)), 2482 (Summary (OXTR agonists)) …; assay type: functional
[13] = control 3'UTR Renilla luciferase suppression, dose response, counter-screen for Shn3 inhibitor project, cell-based, Clone20-Shn3RL, cherry-picked (AID 624133); assay type: functional
[14] = biological target: Protein Wnt-3a (Mus musculus, UniProt P27467); assay: Wnt3a-driven reporter signaling inhibition, dose response, selectivity assay for Gli-SUFU antagonist project, Wnt-LIGHT cells, luminescence (AID 651570); assay type: functional; settings: read-out: IC50_Mean;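 further: Wnt-LIGHT reporter cells stimulated with conditioned medium from Wnt3a-producing cells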
[15] = HepG2 cell cytotoxicity, dose response, cytotoxicity control for Shn3 inhibitor project, CellTiter-Glo, cherry-picked (AID 624134); assay type: functional, cell-based
[16] = biological target: Heat shock 70 kDa protein 1A (Homo sapiens, UniProt P0DMV8); assay: Hsp70 inhibitors, SAR follow-up, biochemical, fluorescence polarization (AID 1072)
[17] = biological target: T2, Tyrosine-protein phosphatase non-receptor type 7 (Homo sapiens, UniProt P35236); assay type: functional
T2 sequence (P35236 whole entry): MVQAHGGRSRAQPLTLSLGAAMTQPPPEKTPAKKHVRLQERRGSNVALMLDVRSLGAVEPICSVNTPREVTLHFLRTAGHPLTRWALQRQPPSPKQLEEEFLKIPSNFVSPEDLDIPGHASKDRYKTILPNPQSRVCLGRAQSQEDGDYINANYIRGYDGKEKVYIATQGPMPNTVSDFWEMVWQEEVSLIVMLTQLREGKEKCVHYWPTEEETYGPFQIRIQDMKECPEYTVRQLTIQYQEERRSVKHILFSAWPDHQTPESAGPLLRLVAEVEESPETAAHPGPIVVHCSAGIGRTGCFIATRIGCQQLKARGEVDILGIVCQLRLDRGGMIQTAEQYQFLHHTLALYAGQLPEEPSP

[18] = biological target: Glyceraldehyde-3-phosphate dehydrogenase (Homo sapiens, UniProt P04406)
[19] = biological target: T3, Dual specificity protein phosphatase 6 (Rattus norvegicus, UniProt Q64346);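 further: in vitro confirmatory secondary MKP-3 assay designed to detect irreversible or slow-binding inhibitors; recombinant His-tagged rat MKP-3 acting on the substrate OMFP; inhibitor potency from reduced phosphatase rate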
T3 sequence (Q64346 whole entry): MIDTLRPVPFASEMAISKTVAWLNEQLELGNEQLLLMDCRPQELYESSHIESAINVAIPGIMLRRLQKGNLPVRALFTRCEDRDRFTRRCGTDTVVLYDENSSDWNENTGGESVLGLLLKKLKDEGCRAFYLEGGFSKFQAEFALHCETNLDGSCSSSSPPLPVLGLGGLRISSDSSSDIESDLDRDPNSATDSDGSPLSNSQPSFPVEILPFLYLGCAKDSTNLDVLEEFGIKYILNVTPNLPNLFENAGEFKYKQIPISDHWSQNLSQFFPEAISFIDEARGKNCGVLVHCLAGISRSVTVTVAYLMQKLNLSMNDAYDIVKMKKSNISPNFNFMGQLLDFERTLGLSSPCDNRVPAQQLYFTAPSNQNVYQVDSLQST

[20] = biological target: Heat shock cognate 71 kDa protein (Homo sapiens, UniProt P11142); assay: In Vitro Hsc70 Dose Response Fluorescence Polarization Assay. [Related pubchem assays: 1072 ]
[21] = biological target: Heat shock protein HSP 90-alpha (Homo sapiens, UniProt P07900); assay type: functional, organism-based
[22] = Concentration-dependent survival of SW480 colon cancer line, luminescence detection with CellTiter-Glo, half-maximal inhibitory concentration (AID 1117338); assay type: functional
[23] = biological target: Phospholipase A2 (Homo sapiens, UniProt P04054); assay type: functional;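 further: confirmatory dose-response counterscreen on phospholipase A2, testing hits that came from an ultra-high-throughput screen for ATG4B inhibitors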
[24] = biological target: Cytochrome P450 2D6 (Homo sapiens, UniProt P10635); assay: qHTS Assay for Inhibitors and Substrates of Cytochrome P450 2D6. [Related pubchem assays: 410 ]; assay type: ADME; settings: read-out: Potency
[25] = cytotoxicity toward Colo320 cells – cell-based, CellTiter-Glo luminescence, IC50, dose response (AID 1117334); assay type: functional; settings: COLO 320
[26] = HCT116 cell viability decrease, GSK3B pretreatment – CellTiter-Glo, IC50, dose response (AID 1117339); assay type: functional; settings: HCT-116
[27] = Glucagon-like peptide 1 release potency, NCI-H716 cell line, dose-response, half-maximal inhibitory concentration (AID 1117344); assay type: functional, cell-based
[28] = half-maximal inhibitory concentration for glucagon-like peptide-1 release, STC-1 cell line, dose-response (AID 1117345); assay type: functional, cell-based
[29] = biological target: Voltage-gated inwardly rectifying potassium channel KCNH2 (Homo sapiens, UniProt Q12809); settings: Potency;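 further: confirmatory quantitative high-throughput screen measuring inhibition of hERG channel activity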
[30] = cytotoxicity toward HCT116 cells – cell-based, CellTiter-Glo luminescence, IC50, dose response (AID 1117332); assay type: functional; settings: HCT-116
[31] = SNU-C1 cell viability reduction, dose response, CellTiter-Glo luminescence (AID 1117323); assay type: functional, cell-based
[32] = biological target: Fatty acid synthase (Homo sapiens, UniProt P49327); assay: FAS thioesterase domain inhibitors, dose response, biochemical, kinetic fluorescence intensity (AID 624326); assay type: functional;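 further: rate of fluorescence rise from hydrolysis of a fluorogenic O-methyl fluorescein ester substrate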
[33] = biological target: T4, Cysteine protease ATG4B (Homo sapiens, UniProt Q9Y4P1); assay type: functional;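 further: Fluorescence-based dose-response confirmation assay measuring inhibition of ATG4B activity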
T4 sequence (Q9Y4P1 whole entry): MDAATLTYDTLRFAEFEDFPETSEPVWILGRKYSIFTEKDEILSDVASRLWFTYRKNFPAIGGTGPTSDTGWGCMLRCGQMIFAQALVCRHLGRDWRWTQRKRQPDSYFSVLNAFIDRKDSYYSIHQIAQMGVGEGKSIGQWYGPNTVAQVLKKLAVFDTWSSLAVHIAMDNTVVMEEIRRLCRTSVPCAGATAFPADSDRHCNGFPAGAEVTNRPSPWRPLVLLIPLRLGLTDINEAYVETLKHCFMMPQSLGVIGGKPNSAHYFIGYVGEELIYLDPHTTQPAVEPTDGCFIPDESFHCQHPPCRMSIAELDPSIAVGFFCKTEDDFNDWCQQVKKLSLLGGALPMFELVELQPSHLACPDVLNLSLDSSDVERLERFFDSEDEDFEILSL

[34] = RKO cell viability reduction, dose response, CellTiter-Glo luminescence (AID 1117322); assay type: functional
[35] = CellTiter-Glo luminescent dose response of DLD-1 viability loss (AID 1117352); assay type: functional

Chain of Cytochrome P450 2D6 (P10635 whole entry): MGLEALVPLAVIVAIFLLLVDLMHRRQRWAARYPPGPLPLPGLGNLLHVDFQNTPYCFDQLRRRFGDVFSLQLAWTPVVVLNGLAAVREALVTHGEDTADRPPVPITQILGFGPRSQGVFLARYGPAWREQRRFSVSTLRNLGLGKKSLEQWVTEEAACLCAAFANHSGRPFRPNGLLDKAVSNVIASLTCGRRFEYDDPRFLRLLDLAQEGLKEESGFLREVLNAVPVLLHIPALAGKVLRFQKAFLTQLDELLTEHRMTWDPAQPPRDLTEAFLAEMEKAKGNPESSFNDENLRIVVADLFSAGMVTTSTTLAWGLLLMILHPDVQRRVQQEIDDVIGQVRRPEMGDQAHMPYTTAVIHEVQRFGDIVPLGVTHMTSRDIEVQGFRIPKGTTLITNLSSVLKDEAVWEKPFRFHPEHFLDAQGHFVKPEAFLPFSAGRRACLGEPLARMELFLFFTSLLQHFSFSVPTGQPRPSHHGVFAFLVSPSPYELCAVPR
Chain of Heat shock 70 kDa protein 1A (P0DMV8 whole entry): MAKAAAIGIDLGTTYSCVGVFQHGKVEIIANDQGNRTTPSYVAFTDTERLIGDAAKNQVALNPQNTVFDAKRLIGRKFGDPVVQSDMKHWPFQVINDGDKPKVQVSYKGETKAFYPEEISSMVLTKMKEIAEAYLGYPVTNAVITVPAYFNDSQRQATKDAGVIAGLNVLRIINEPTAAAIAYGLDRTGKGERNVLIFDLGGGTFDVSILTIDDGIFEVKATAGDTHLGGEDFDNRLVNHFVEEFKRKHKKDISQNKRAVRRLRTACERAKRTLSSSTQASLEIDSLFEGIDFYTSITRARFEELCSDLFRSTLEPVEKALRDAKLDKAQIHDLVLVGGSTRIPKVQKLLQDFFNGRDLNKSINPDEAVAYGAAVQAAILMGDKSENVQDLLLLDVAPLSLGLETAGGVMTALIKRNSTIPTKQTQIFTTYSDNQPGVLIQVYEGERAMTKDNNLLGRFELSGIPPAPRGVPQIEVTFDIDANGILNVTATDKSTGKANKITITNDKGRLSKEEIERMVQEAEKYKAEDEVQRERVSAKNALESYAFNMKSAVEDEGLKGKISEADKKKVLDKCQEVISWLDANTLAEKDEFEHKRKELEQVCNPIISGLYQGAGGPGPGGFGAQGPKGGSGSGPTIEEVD
Chain of Phospholipase A2 (P04054 whole entry): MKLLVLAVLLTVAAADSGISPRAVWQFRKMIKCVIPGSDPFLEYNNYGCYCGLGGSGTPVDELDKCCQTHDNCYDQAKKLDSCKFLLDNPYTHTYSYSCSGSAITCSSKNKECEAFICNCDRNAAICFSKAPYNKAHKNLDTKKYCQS
Chain of Heat shock cognate 71 kDa protein (P11142 whole entry): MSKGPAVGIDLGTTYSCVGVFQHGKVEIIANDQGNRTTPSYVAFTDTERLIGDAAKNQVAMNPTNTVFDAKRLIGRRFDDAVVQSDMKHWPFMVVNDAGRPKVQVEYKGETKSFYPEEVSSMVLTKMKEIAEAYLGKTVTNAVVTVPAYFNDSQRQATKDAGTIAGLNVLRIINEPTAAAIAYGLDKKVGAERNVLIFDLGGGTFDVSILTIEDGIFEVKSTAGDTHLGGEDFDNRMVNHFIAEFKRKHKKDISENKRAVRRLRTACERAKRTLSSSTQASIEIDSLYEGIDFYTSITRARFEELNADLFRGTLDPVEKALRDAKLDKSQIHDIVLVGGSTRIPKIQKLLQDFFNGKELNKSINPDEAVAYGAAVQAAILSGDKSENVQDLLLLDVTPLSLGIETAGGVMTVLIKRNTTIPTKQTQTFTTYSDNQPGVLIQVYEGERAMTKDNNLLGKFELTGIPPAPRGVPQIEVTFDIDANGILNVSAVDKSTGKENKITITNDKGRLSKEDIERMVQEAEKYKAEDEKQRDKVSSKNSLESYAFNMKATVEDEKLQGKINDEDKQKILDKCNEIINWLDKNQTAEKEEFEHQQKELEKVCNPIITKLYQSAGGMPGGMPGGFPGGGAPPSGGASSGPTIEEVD
Chain of Vasopressin V1a receptor (P37288 whole entry): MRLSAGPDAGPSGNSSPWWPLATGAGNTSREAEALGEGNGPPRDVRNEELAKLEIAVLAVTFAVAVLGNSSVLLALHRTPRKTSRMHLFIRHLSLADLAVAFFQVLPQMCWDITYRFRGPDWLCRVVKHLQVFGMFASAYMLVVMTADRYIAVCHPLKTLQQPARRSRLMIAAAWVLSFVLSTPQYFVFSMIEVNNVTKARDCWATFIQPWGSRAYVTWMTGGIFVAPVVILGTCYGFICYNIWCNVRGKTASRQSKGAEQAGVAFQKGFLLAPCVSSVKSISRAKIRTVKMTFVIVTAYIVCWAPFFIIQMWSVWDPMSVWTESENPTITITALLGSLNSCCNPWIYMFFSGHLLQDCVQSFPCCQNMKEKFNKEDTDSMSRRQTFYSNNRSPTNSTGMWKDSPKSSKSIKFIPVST
Chain of Glyceraldehyde-3-phosphate dehydrogenase (P04406 whole entry): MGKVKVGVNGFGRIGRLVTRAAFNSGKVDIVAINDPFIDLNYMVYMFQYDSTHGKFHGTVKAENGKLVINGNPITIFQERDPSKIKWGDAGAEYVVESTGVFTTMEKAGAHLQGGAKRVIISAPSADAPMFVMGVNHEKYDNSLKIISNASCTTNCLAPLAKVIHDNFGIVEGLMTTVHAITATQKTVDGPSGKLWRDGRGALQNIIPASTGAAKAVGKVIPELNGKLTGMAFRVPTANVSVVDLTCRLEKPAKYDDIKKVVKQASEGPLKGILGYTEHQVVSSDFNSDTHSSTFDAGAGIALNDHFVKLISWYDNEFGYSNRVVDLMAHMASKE
Chain of Protein Wnt-3a (P27467 whole entry): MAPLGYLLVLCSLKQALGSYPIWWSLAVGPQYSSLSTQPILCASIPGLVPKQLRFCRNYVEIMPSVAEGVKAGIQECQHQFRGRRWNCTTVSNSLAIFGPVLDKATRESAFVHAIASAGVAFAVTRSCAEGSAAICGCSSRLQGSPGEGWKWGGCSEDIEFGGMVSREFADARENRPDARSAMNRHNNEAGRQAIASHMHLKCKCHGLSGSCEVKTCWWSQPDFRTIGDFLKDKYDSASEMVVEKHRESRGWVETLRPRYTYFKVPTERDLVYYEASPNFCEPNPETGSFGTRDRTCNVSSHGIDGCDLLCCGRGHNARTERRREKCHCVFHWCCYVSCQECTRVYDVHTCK
Chain of Voltage-gated inwardly rectifying potassium channel KCNH2 (Q12809 whole entry): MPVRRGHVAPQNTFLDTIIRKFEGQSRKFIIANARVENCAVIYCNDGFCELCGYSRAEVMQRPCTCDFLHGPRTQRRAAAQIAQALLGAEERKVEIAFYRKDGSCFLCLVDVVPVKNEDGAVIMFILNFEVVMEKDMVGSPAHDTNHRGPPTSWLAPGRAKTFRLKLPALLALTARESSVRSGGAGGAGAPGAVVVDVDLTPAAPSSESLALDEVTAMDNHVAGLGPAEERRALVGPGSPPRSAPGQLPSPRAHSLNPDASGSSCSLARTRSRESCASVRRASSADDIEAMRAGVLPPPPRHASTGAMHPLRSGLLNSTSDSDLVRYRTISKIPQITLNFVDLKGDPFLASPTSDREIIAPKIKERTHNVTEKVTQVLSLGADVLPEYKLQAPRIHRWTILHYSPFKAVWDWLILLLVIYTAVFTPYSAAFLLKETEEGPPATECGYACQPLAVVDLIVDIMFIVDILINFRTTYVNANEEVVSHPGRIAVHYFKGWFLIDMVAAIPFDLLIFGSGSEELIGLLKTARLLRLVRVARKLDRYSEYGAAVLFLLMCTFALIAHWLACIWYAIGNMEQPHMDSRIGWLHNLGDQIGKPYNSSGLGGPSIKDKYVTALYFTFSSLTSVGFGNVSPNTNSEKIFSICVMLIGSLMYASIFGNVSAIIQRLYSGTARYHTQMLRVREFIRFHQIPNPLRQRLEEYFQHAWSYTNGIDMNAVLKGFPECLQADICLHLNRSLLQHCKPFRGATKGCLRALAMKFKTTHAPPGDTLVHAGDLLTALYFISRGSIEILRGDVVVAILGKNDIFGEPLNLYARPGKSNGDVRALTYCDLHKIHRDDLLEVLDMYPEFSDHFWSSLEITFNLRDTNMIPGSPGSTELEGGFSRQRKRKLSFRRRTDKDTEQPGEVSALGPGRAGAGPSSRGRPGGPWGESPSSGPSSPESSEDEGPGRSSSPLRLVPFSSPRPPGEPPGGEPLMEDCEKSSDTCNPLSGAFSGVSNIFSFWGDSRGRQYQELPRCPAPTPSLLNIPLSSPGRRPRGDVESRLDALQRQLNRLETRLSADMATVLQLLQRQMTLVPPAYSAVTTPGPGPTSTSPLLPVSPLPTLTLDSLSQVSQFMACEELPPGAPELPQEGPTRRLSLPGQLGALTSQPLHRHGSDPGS
Chain of Oxytocin receptor (P30559 whole entry): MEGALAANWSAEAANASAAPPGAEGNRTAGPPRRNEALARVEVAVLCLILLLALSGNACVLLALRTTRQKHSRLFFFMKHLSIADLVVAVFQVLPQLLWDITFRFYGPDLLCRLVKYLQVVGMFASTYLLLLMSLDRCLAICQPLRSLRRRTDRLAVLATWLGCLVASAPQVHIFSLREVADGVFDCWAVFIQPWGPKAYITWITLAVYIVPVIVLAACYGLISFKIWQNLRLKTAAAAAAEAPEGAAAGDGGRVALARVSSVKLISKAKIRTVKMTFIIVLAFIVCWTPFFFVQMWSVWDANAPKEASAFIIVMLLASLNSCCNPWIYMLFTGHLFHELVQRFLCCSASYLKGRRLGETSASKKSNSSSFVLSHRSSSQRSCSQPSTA

Question: Which EC50 [1] does the source give for O=C(NC(=S)Nc1ccccc1N1CCCC1)c1ccccc1Br here?
Answer: Its EC50 is > 500 µM (not active).

Question: And the EC50 [2]?
Answer: Its EC50 is 6.61 µM (active).

Question: What about the EC50 [3] of the same compound?
Answer: Its EC50 is 32.3 µM (active).

Question: What about the EC50 [4] of the same compound?
Answer: The EC50 was > 150 µM (not active).

Question: With COc1ccc(C2NCc3ccc4c(c3-n3cccc32)OCO4)cc1O (stereo not given) as the compound, how does the EC50 [5] read?
Answer: Its EC50 is > 12 µM (not active).

Question: And the EC50 [6]?
Answer: Its EC50 is 2.6 µM (active).

Question: And the EC50 [7]?
Answer: Its EC50 is < 0.1 µM (active).

Question: And the EC50 [8]?
Answer: The EC50 was < 0.1 µM (active).

Question: And the EC50 [9]?
Answer: The EC50 was 5.44 µM (active).

Question: With COc1ccc(CNc2[nH]cnc3c4ccccc4nc2-3)cc1 as the compound, how does the AC50 [10] read?
Answer: The AC50 was 4.19 µM (active).

Question: And the EC50 [11]?
Answer: The EC50 was 27.4 µM (not active).

Question: What about the EC50 [12] of the same compound?
Answer: Its EC50 is > 29.9 µM (not active).

Question: What about the AC50 [13] of the same compound?
Answer: The AC50 was 5.89 µM (active).

Question: What about the IC50 [14] of the same compound?
Answer: Its IC50 is 12.4 µM (active).

Question: What about the AC50 [15] of the same compound?
Answer: The AC50 was 28 µM (active).

Question: Which results are given for COC(=O)c1ccccc1OC(=O)c1ccc2c(c1)C1C=CCC1C(C(=O)O)N2 (stereo not given)?
Answer: IC50 [16]: 28 µM (active); IC50 [17]: 2.8 µM (active); IC50 [18]: 93.6 µM (active); IC50 [19]: 17 µM (active); IC50 [20]: 115 µM (active)

Question: For Oc1ccc(Cl)cc1Sc1cc(Cl)ccc1O [FENTICLOR], which AC50 [21] is on record?
Answer: Its AC50 is 4.11 µM (active).

Question: What about the IC50 [22] of the same compound?
Answer: The IC50 was 0.579 µM (active).

Question: What about the IC50 [23] of the same compound?
Answer: Its IC50 is 15.2 µM (active).

Question: And the AC50 [24]?
Answer: Its AC50 is 3.16 µM (inconclusive).

Question: What about the IC50 [25] of the same compound?
Answer: The IC50 was 0.075 µM (active).

Question: What about the IC50 [26] of the same compound?
Answer: The IC50 was 0.148 µM (active).

Question: What about the IC50 [27] of the same compound?
Answer: The IC50 was 21.3 µM (inactive).

Question: And the IC50 [28]?
Answer: Its IC50 is > 20 µM (inactive).

Question: What about the AC50 [29] of the same compound?
Answer: Its AC50 is 31.6 µM (inconclusive).

Question: What about the IC50 [30] of the same compound?
Answer: The IC50 was 0.183 µM (active).

Question: And the IC50 [31]?
Answer: The IC50 was 1.85 µM (active).

Question: What about the IC50 [32] of the same compound?
Answer: The IC50 was 3.52 µM (active).

Question: What about the IC50 [33] of the same compound?
Answer: The IC50 was 11 µM (active).

Question: What about the IC50 [34] of the same compound?
Answer: Its IC50 is 0.116 µM (active).

Question: What about the IC50 [35] of the same compound?
Answer: The IC50 was 0.301 µM (active).
